Drawing on ChEMBL document CHEMBL5725298 (2017), this text covers EC50 for four compounds.

Structures are written as SMILES.

This assay can be described thus: Anti-HIV Cytoprotection Assay: The in vitro antiviral activity profile for CMX157 was evaluated for cell-type effects and HIV strain effects.
In the case of `C[C@H](Cn1cnc2c(N)ncnc21)OCP(=O)(O)OCCCOCCCC(=O)O`, the EC50 – broadly, the concentration at which the effect is half-maximal – is above 10 µM.
For `CCCCCCCCCCCCCCCCOCCCOP(=O)(O)CO[C@H](C)Cn1cnc2c(N)ncnc21` [TENOFOVIR EXALIDEX] the value was below 0.03 µM; for `C[C@H](Cn1cnc2c(N)ncnc21)OCP(=O)(O)OCCCO`, above 10 µM.
For `C[C@H](Cn1cnc2c(N)ncnc21)OCP(=O)(O)OCCCOCC(=O)O` the value was above 10 µM.
